For 56 compounds, IC50 results are on record in PubChem BioAssay AID2753 (Vanderbilt High Throughput Screening Facility, 2010).

Calls of active or inactive are those of the source. The rule behind the calls is not given here.

Usually IC50 stands for the concentration that inhibits the measured activity by half.

The assay addresses ATP-sensitive inward rectifier potassium channel 1 (Homo sapiens) (UniProt P48048). The assay can be described thus: concentration-response of Kir1.1 channel inhibition – cell-based, thallium flux, HEK293, dose response (AID 2753). The following applies: HEK293 ROMK thallium flux, fluorescence.

Chain of ATP-sensitive inward rectifier potassium channel 1 (Homo sapiens) (P48048 whole entry, looked up): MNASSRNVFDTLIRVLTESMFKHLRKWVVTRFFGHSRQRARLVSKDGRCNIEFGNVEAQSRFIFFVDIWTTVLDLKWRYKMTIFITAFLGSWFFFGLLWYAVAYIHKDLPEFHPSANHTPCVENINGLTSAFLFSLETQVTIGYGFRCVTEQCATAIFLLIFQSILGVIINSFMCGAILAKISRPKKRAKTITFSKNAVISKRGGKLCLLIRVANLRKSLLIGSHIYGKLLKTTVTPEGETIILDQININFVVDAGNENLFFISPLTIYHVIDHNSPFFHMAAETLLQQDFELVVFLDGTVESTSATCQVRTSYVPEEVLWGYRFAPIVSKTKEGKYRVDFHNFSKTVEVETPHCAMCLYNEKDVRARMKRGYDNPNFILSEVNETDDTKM

Consider `CCCn1c(=S)[nH]c2cc(C(=O)N3CCCC(C(=O)OCC)C3)ccc2c1=O` (stereo unspecified), for which the IC50 result was “inactive”.

Regarding `O=C1c2[nH]nc(-c3ccccc3O)c2C(c2cccc(Cl)c2)N1CC1CCCO1` (stereo unspecified), the IC50 entry was “inactive”.

Turning to `N#Cc1nc(N2CCCC2)nc(N2CCCC2)n1`, the IC50 was 41.7 µM.

For the compound `N#C/C(=C/c1ccncc1)c1nc2ccccc2s1`, the IC50 is 2.68 µM.

On to `CCOC(=O)C(=Cc1ccc(-n2cncn2)cc1)C(=O)OCC`, for which the IC50 was 95.8 µM.

`COc1ccc2c(c1OC)C(=O)OC2Nc1nc(-c2cc3ccccc3oc2=O)cs1` (stereo unspecified): the IC50 entry was “inactive”.

Consider `O=c1c2ccccc2nc(/C=C/c2ccc([N+](=O)[O-])o2)n1CCCO`, for which the IC50 entry was “inactive”.

As to `CC1CCN(C(=O)CSCC(=O)Nc2nc(-c3cccs3)cs2)CC1`, the IC50 result is “inactive”.

With `Cc1cc(NC(=O)/C=C/C(=O)N(CC(=O)NC2CCCC2)c2cccc3ccccc23)no1`, the IC50 was 9.96 µM.

Consider `CC(C(=O)c1ccc(-c2ccccc2)cc1)[n+]1cccc(NC(=O)c2ccccc2)c1` (stereo unspecified), for which the IC50 is 27.9 µM.

Regarding `N#C/C(=C\C1CC=CCC1)c1nc2ccccc2[nH]1` (stereo unspecified), the IC50 entry was “inactive”.

With `CCOC(=O)CS(=O)(=O)c1nc(-c2ccccc2)cc(C(F)(F)F)n1`, the IC50 was 12.4 µM.

Take `O=C(Cn1nc(Cl)nc1Cl)c1cc2ccccc2oc1=O`: the IC50 was 18 µM.

`CCCS(=O)(=O)c1nnnn1-c1cccc(OC)c1`: the IC50 entry is “inactive”.

Take `c1csc(CNc2ncnc3sccc23)c1`: the IC50 result was “inactive”.

On to `N#CC1=C(N)N(c2ccccc2)C(c2ccccc2)C1(C#N)C#N` (stereo unspecified), for which the IC50 is 32.2 µM.

Consider `CCCN1C(=O)/C(=C/c2ccncc2)SC1=S`, for which the IC50 is 7.7 µM.

Consider `Cc1ccccc1-n1sc2cc(F)ccc2c1=O`, for which the IC50 entry was “inactive”.

For the compound `CC1CCCCC1NC(=O)CN1C(=O)CSc2cc(S(=O)(=O)N3CCCCCC3)ccc21` (stereo unspecified), the IC50 is 55.3 µM.

Turning to `Cn1c(/C(C#N)=C/c2cccc(O)c2)nc2ccccc21`, the IC50 result was “inactive”.

For the compound `O=C(NCc1ccccc1)N1CCC(n2cnc3cc(F)ccc32)CC1`, the IC50 entry is “inactive”.

For the compound `CC(C)c1[nH]nc2c1C(c1cccs1)C(C#N)=C(N)O2` (stereo unspecified), the IC50 result was “inactive”.

With `COC(=O)C(=Cc1ccccc1[N+](=O)[O-])C(=O)OC`, the IC50 was 8.19 µM.

As to `N#C/C(=C\c1ccc(O)c(Br)c1)C(=O)NCc1ccccc1`, the IC50 result was “inactive”.

On to `CCc1cccc(NC(=O)CSC2=NS(=O)(=O)c3ccccc32)c1`, for which the IC50 result was “inactive”.

As for `Cc1cc2c(cc1S(=O)(=O)N(C)c1ccccc1)NC(=O)CO2`, the IC50 is 0.909 µM.

For the compound `CCOC(=O)c1c(NC(=O)C[n+]2ccc(Cc3ccccc3)cc2)sc(C)c1C`, the IC50 entry was “inactive”.

On to `N#C/C(=C\c1cccc(Oc2ccccc2)c1)C(=O)N1CCOCC1`, for which the IC50 is 6.57 µM.

`CCN(CC)S(=O)(=O)c1ccc(OC)c(NC(=O)CSc2cc(C)ccc2C)c1`: the IC50 was 12.8 µM.

As for `N#C/C(=C\C1=C(N2CCOCC2)C(=C\c2ccccc2)/CC1)C(=O)Nc1ccccc1F`, the IC50 was 14.5 µM.

Turning to `Cc1ccc(C2=NOC(=O)/C2=C\c2ccc(C)o2)cc1`, the IC50 was 5.22 µM.

Regarding `CCOCCCNC(=O)/C(C#N)=C/c1ccccc1F`, the IC50 entry is “inactive”.

As to `O=C1ON=C(c2cccc([N+](=O)[O-])c2)/C1=C/c1ccc(O)cc1`, the IC50 is 5.68 µM.

In the case of `CC(NC(=O)/C(C#N)=C/c1cccs1)c1ccccc1` (stereo unspecified), the IC50 is 69.5 µM.

`O=C(CN1CCCC1)Nc1c2c(nc3ccccc13)N(Cc1ccccc1)CC2`: the IC50 entry is “inactive”.

Take `CCCCNC(=O)/C(C#N)=C/c1ccc(F)cc1F`: the IC50 is 3.93 µM.

For the compound `O=C(/C=C\c1cccs1)c1c(O)ccc2ccc(=O)oc12`, the IC50 is 4.79 µM.

For the compound `N#Cc1ccc(/C=C/C(=O)c2cccnc2)cc1`, the IC50 is 4.51 µM.

As for `O=C(NC1CCCCCC1)c1cc(S(=O)(=O)N2CCCCC2)ccc1N1CCOCC1`, the IC50 was 5.44 µM.

With `Cc1ccccc1N1C(=S)NC2c3ccccc3OC1(C)C2C(=O)N(C)C` (stereo unspecified), the concentration for half-maximal inhibition (IC50) is 0.0115 µM.

Consider `CCOC(=O)N1CCN(S(=O)(=O)c2ccc3c(c2)SCC(=O)N3)CC1`, for which the IC50 entry was “inactive”.

`CC(C)C(c1nnnn1Cc1ccccc1)N1CCN(Cc2ccc3c(c2)OCO3)CC1` (stereo unspecified): the IC50 is 5.83 µM.

`COc1cccc(C(c2nnnn2Cc2ccccc2)N2CCN(C3CCCC3)CC2)c1OC` (stereo unspecified): the IC50 was 35.6 µM.

Take `O=C1C=C(c2ccccc2)C(=O)N1Nc1ccccc1`: the IC50 was 2.77 µM.

Take `N#CC(C#N)=C1C=CC=CN1/C(=C\c1ccccc1Cl)C(=O)c1ccccc1`: the half-maximal inhibitory concentration (IC50) was 6.03 µM.

As to `CC1CN(c2ccc([N+](=O)[O-])c(NCCOc3ccccc3)c2)CCN1` (stereo unspecified), the IC50 entry is “inactive”.

Consider `COc1ccc(NC(=O)/C(C#N)=C/c2ccc(Sc3nncn3C)c([N+](=O)[O-])c2)cc1`, for which the IC50 is 4.29 µM.

On to `COCCNC(=O)/C(C#N)=C/c1cccc(/C=C(\C#N)C(=O)NCCOC)c1`, for which the IC50 was 2.87 µM.

Take `COc1cc(/C=C(\C#N)C(=O)Nc2ccccc2C(=O)O)cc(Cl)c1OC`: the IC50 was 3.3 µM.

Take `O=C(NCc1cccnc1)/C(=C/c1ccc(-c2cccc(Cl)c2)o1)S(=O)(=O)c1ccccc1`: the IC50 result was “inactive”.

For the compound `O=C(Nc1ccc2oc(=O)ccc2c1)c1cc([N+](=O)[O-])ccc1N1CCOCC1`, the IC50 was 3.41 µM.

Consider `COCCCNc1ccc([N+](=O)[O-])cc1C(=O)Nc1cccc(C)n1`, for which the IC50 was 13.7 µM.

As to `Cc1ccc(/C=C(\C#N)C(=O)NCCN2CCOCC2)cc1`, the IC50 result was “inactive”.

For `CCCC(=O)OCCNc1cc(Sc2nccn2C)c2nonc2c1[N+](=O)[O-]`, the IC50 was 157 µM.

Regarding `Cc1ccc(Oc2c(C(N)=O)cc([N+](=O)[O-])cc2[N+](=O)[O-])cc1`, the IC50 is 51 µM.

For the compound `COc1ccc(-n2nc(C#N)c(Cl)cc2=O)cc1`, the IC50 is 10.3 µM.
